Literature values as cited in publication PMC9516332 (Frontiers in Oncology, 2022).

What was measured:
[1] = target: T1, panel of 255 wild-type kinases (Homo sapiens, UniProt Q05513); conditions: kinase PKCζ; 1 µmol/L single concentration; ref DOI: 10.1371/journal.pone.0092146; cited from earlier work
T1 sequence (Q05513 1-592): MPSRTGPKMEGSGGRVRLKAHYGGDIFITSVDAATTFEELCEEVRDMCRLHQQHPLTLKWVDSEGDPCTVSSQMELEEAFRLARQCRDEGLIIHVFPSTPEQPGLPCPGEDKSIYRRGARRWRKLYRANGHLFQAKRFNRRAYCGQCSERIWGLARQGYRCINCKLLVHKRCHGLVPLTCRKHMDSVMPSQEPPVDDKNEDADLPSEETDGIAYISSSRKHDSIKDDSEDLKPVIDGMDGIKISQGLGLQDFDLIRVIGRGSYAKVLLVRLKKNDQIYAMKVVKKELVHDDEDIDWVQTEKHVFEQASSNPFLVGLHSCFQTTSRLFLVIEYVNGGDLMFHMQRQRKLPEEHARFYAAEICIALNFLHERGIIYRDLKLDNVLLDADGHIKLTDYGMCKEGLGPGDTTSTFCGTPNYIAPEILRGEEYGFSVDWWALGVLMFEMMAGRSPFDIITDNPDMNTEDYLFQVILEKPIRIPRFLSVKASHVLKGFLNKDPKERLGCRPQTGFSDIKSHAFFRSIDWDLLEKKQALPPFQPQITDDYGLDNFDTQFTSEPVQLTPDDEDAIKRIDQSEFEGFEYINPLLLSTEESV

[2] = target: panel of 255 wild-type kinases (Homo sapiens, UniProt Q15208); conditions: NDR1; 1 µmol/L single concentration; ref DOI: 10.1371/journal.pone.0092146; cited from earlier work
[3] = target: T2, panel of 255 wild-type kinases (Homo sapiens, UniProt Q8TF76); conditions: kinase Haspin; 1 µmol/L single concentration; ref DOI: 10.1371/journal.pone.0092146; cited from earlier work
T2 sequence (Q8TF76 1-798): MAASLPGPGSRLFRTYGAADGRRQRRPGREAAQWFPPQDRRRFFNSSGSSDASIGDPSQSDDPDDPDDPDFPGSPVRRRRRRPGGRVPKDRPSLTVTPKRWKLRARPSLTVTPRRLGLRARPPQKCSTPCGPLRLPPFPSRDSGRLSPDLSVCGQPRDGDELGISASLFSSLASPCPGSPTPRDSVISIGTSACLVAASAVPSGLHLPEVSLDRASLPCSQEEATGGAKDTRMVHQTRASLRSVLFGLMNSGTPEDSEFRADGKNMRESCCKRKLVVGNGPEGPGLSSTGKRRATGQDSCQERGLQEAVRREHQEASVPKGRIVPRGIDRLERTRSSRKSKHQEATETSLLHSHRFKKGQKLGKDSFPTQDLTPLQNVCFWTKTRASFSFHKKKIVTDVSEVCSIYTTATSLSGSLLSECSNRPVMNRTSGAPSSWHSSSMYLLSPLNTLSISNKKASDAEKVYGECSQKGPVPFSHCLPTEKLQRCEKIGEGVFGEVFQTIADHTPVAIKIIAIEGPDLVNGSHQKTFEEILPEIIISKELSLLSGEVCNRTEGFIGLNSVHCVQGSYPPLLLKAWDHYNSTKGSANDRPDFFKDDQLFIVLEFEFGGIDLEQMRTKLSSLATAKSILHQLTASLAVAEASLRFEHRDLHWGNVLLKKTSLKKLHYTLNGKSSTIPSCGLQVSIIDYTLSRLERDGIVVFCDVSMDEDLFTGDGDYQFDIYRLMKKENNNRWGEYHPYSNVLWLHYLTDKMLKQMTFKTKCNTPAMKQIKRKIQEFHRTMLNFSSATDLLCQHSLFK

[4] = target: panel of 255 wild-type kinases (Homo sapiens, UniProt P42684); conditions: ARG kinase assay; 1 µmol/L single concentration; ref DOI: 10.1371/journal.pone.0092146; cited from earlier work
[5] = target: panel of 255 wild-type kinases (Homo sapiens, UniProt P51617); conditions: kinase IRAK1; 1 µmol/L single concentration; ref DOI: 10.1371/journal.pone.0092146; cited from earlier work
[6] = target: panel of 255 wild-type kinases (Homo sapiens, UniProt Q16620); conditions: kinase TRKB; 1 µmol/L single concentration; ref DOI: 10.1371/journal.pone.0092146; cited from earlier work
[7] = target: panel of 255 wild-type kinases (Homo sapiens, UniProt P17948); conditions: kinase FLT1; 1 µmol/L single concentration; ref DOI: 10.1371/journal.pone.0092146; cited from earlier work
[8] = target: panel of 255 wild-type kinases (Homo sapiens, UniProt Q9H2G2); conditions: kinase SLK; 1 µmol/L single concentration; ref DOI: 10.1371/journal.pone.0092146; cited from earlier work
[9] = target: panel of 255 wild-type kinases (Homo sapiens, UniProt Q9UKE5); conditions: kinase TNIK; 1 µmol/L single concentration; ref DOI: 10.1371/journal.pone.0092146; cited from earlier work
[10] = target: panel of 255 wild-type kinases (Homo sapiens, UniProt Q9H4A3); conditions: kinase WNK1; 1 µmol/L single concentration; ref DOI: 10.1371/journal.pone.0092146; cited from earlier work

Compound: CCCS(=O)(=O)Nc1ccc(F)c(C(=O)c2c[nH]c3ncc(-c4ccc(Cl)cc4)cc23)c1F [vemurafenib]
- %-inhibition at 1 µmol/L, PKCζ [1]: 13%
- %-inhibition, NDR1 [2]: -3.81%
- %-inhibition at 1 µmol/L, Haspin [3]: -3%
- %-inhibition ARG [4]: 7%
- %-inhibition at 1 µmol/L, IRAK1 [5]: 10%
- %-inhibition at 1 µmol/L, TRKB [6]: 11%
- %-inhibition at 1 µmol/L, FLT1 [7]: 25%
- %-inhibition at 1 µmol/L, SLK [8]: 43%
- %-inhibition at 1 µmol/L, TNIK [9]: 33%
- %-inhibition at 1 µmol/L, WNK1 [10]: 10%
